Test results reported in patent US20230322735A1, “AZETIDINYL TRYPTAMINES AND METHODS OF TREATING PSYCHIATRIC DISORDERS” (priority 2020, published 2023).
Where a name gives a salt, the structure may show the parent alone. Read-outs that look alike come from different tables or passages of the source.

Assays:
[1] = Metabolic stability in human liver microsomes (HLM); settings: for half-life at 1 μM / microsomal CLint at 1 μM: both, human, pooled human liver microsomes, pH 7.4; for metabolic stability in HLM compared with dimethyl counterpart: vs DMT, psilocin, 5-MeO-DMT respectively; for t1/2: HLM, 1 μM test compound, 0.50 mg protein/mL, NADPH, 37° C., 60 min
5-HT2B receptor = target: T1, 5-HT2B receptor (Homo sapiens, UniProt P41595); experiment: FLIPR Ca2+ flux agonist assay at 5-HT2B (HEK293); format: cell-based; settings: for 5-HT2B % Act @ Max Dose: Ca2+ flux, agonist mode, HEK293
T1 construct: host or cells: HEK293
Experimental: (§1) A solution of 250 mM probenecid in 1 mL FLIPR assay buffer was prepared fresh. This was combined with a fluorescent dye (Fluo-4 Direct™) to make a final assay concentration of 2.5 mM. […] The fluorescent dye was then added to the assay plate along with assay buffer to a final volume of 40 μL. The cell plate was incubated for 50 min at 37° C. and 5% CO2 and placed into the FLIPR Tetra along with the compound plate. 10 μL of references and compounds were then transferred from the compound plate into the cell plate and the fluorescent signal was read.

[2] = Stability in rat brain homogenate; settings: for half-life at 1 μM: male, Sprague Dawley, rat, rat brain homogenate; for % Compound Remaining (after 120 min) / t1/2: rat brain homogenate (male Sprague Dawley), 1 μM, 37° C.
C57BL/6 mice = experiment: Head twitch response (HTR) in mice; format: in vivo, mouse; settings: SC; for maximal effect in the HTR assay: maximum over doses tested
[3] = Stability in mouse brain homogenate; settings: for half-life at 1 μM: male, CD-1, mouse, mouse brain homogenate; for % Compound Remaining (after 120 min) / t1/2: mouse brain homogenate (male CD-1), 1 μM, 37° C.
5-HT1A receptor = target: T2, 5-HT1A receptor (Homo sapiens, UniProt P08908); experiment: FLIPR Ca2+ flux agonist assay at 5-HT1A (CHO cells); format: cell-based; settings: for fold more potent at 5-HT1A than dimethyl (and methylethyl) counterparts: Ca2+ flux EC50 compared with DMT/MET, psilocin/4-HO-MET, 5-MeO-DMT; for 5-HT1A % Act @ Max Dose: Ca2+ flux, agonist mode, CHO cells
T2 construct: host or cells: CHO cells
T2 sequence (P08908 1-422): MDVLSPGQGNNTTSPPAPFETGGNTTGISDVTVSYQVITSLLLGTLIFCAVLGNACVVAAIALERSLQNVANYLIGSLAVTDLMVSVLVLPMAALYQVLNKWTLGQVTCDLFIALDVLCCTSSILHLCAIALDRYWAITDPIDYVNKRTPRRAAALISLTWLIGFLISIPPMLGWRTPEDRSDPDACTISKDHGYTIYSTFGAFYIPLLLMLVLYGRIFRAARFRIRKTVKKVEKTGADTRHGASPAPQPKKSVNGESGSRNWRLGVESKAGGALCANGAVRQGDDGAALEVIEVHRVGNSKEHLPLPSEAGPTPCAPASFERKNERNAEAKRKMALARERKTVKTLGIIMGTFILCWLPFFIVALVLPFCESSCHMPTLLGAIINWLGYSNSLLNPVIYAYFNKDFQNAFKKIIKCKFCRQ
Experimental: as §1

5-HT2A receptor = target: T3, 5-HT2A receptor (Homo sapiens, UniProt P28223); experiment: FLIPR Ca2+ flux agonist assay at 5-HT2A (HEK293); format: cell-based
T3 construct: host or cells: HEK293
Experimental: as §1

[4] = Pro-drug conversion to Compound 2 after administration to an animal; format: in vivo; settings: when administered to an animal, for example a human
[5] = Chemical stability of the product on storage and analysis; format: physicochemical; settings: storage and handling
Experimental: Note: The product 2 is unstable and should be stored frozen, protected from light, and under inert gas. If stored properly, stability has been confirmed by qNMR for at least 1 month.
A mixture of 3-(2-(azetidin-1-yl)ethyl)-1H-indol-4-ol (2, 50 mg, 231.18 μmol, 1 eq) and pyridine (23.77 mg, 300.54 μmol, 24.26 μL, 1.3 eq) in DCM (1 mL) was cooled to 0° C. Then acetic anhydride (25.96 mg, 254.30 μmol, 23.82 μL, 1.1 eq) was added dropwise at 0° C. and the resulting mixture was stirred at 25° C. for 1 h. At this time, the solvent was removed and the residue was purified by prep-HPLC (column=Waters Xbridge BEH C18 (100*30 mm, 10 μm); mobile phase=water(NH4HCO3)-ACN, B %=5%-40%; 10 min run time) to provide 3-(2-(azetidin-1-yl)ethyl)-1H-indol-4-yl acetate (4) as a white solid (20 mg, 33% yield). ^1H NMR (400 MHz, DMSO-d6) δ 11.01 (br s, 1H), 7.22 (d, J=8.0 Hz, 1H), 7.11 (d, J=1.6 Hz, 1H), 7.02 (t, J=8.0 Hz, 1H), 6.64 (d, J=7.6 Hz, 1H), 3.09 (t, J=6.8 Hz, 4H), 2.57-2.54 (m, 4H), 2.32 (s, 3H), 1.96-1.90 (m, 2H); LCMS (RT=0.983 min, MS calc.: 258.14, [M+H]+=259.1).

human 5-HT2C receptor = target: T4, human 5-HT2C receptor (Homo sapiens, UniProt P28335); experiment: cell-based; settings: Ca2+ flux, agonist mode
T4 sequence (P28335 33-458): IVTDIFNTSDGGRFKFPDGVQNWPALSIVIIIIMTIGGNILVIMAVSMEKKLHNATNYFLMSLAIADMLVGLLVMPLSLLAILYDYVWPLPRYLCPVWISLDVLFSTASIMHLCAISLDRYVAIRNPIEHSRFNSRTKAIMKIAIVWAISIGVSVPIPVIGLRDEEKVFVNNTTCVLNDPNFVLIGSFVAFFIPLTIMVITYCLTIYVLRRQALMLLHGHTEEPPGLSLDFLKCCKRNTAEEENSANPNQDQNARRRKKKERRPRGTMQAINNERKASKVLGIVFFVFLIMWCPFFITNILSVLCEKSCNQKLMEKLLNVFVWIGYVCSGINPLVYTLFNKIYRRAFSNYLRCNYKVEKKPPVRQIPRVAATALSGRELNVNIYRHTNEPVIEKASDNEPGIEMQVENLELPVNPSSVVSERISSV

[6] = Ca2+ flux, agonist mode, HEK293
[7] = Ca2+ flux, agonist mode, HEK293, read-out: 5-HT2A EC50

T1 sequence (P41595 whole entry): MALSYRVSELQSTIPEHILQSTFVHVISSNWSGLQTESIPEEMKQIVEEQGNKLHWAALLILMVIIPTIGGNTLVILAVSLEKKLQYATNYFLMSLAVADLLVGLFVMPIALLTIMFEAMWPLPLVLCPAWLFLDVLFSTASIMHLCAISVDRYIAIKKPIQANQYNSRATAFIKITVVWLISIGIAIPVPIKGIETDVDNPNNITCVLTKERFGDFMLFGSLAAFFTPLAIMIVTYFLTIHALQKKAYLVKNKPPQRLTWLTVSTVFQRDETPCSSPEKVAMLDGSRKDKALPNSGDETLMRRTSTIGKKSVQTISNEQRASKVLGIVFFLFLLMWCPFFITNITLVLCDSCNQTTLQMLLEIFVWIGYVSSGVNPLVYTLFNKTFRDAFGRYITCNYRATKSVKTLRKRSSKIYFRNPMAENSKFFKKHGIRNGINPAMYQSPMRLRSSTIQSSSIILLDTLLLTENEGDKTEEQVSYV
T3 sequence (P28223 whole entry): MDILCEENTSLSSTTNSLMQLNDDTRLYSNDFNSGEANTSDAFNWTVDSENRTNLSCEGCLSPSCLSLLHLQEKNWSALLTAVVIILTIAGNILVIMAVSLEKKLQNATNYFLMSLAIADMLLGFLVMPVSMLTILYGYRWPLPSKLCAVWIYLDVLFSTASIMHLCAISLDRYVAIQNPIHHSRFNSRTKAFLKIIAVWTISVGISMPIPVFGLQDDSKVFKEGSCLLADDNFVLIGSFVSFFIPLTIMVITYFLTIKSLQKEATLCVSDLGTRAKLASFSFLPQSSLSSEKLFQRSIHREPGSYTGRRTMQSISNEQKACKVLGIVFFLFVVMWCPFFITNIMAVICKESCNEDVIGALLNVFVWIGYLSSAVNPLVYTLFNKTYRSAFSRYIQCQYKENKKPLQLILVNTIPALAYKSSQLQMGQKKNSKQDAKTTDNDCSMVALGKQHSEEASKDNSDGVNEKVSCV

| SMILES | microsomal CLint at 1 μM [1] [µL/min/mg] | EC50 (5-HT2B receptor) [µM] | 5-HT2B % Act @ Max Dose (5-HT2B receptor) [%] | % Compound Remaining (after 120 min) [2] [%] | % Compound Remaining (after 120 min) [3] [%] | EC50 (5-HT1A receptor) [µM] | 5-HT1A % Act @ Max Dose (5-HT1A receptor) [%] | 5-HT2A % Act @ Max Dose (5-HT2A receptor; [6]) [%] | t1/2 [1] [h] | t1/2 [2] [h] | t1/2 [3] [h] | other results |
| --- | --- | --- | --- | --- | --- | --- | --- | --- | --- | --- | --- | --- |
| c1ccc2c(CCN3CCC3)c[nH]c2c1 [Compound 1, 3-(2-(azetidin-1-yl)ethyl)-1H-indole fumarate] | 12.4 | 0.917 | 22.6 | 91.9 | 111.3 | 0.745 | 135 | 73.2 |  |  |  | half-life at 1 μM [1]: 1.86 h; metabolic stability in HLM compared with dimethyl counterpart [1]: greater metabolic stability; stability in rat brain homogenate (in words) [2]: good stability; half-life at 1 μM [2]: > 4.82 h; Average HTR Over 20-min Test (C57BL/6 mice; dose 0.1 mg/kg): 5.00; Average HTR Over 20-min Test (C57BL/6 mice; dose 1 mg/kg): 2.17; Average HTR Over 20-min Test (C57BL/6 mice; dose 10 mg/kg): 1.00; stability in mouse brain homogenate (in words) [3]: good stability; half-life at 1 μM [3]: > 4.82 h; fold more potent at 5-HT1A than dimethyl (and methylethyl) counterparts (5-HT1A receptor): > 50 fold; EC50 (5-HT2A receptor; [7]): 0.0904 µM |
| COc1ccc2[nH]cc(CCN3CCC3)c2c1 [Compound 3, 3-(2-(azetidin-1-yl)ethyl)-5-methoxy-1H-indole fumarate] | < 9.6 | 0.274 | 35.0 | 98 | 103.1 | 0.0211 | 112 | 99.3 |  |  |  | half-life at 1 μM [1]: > 2.42 h; metabolic stability in HLM compared with dimethyl counterpart [1]: greater metabolic stability; stability in rat brain homogenate (in words) [2]: good stability; half-life at 1 μM [2]: > 4.82 h; stability in mouse brain homogenate (in words) [3]: good stability; half-life at 1 μM [3]: > 4.82 h; fold more potent at 5-HT1A than dimethyl (and methylethyl) counterparts (5-HT1A receptor): > 10 fold; EC50 (5-HT2A receptor; [7]): 0.00715 µM |
| CC(=O)Oc1cccc2[nH]cc(CCN3CCC3)c12 [Compound 4, 3-(2-(azetidin-1-yl)ethyl)-1H-indol-4-yl acetate] |  |  |  |  |  |  |  |  |  |  |  | hydrolysis of the ester to Compound 2 as active metabolite [4]: rapidly hydrolyzed; stability compared with Compound 2 [5]: more stable to oxidation than Compound 2 |
| CCN(C)CCc1c[nH]c2cccc(O)c12 [Compound 4-HO-MET, 3-(2-(ethyl(methyl)amino)ethyl)-1H-indol-4-ol, reference compound] |  | > 10 | 1.09 |  |  | 14.7 | 73.0 | 103 |  |  |  | Average HTR Over 20-min Test (C57BL/6 mice; dose 0.1 mg/kg): 9.50; Average HTR Over 20-min Test (C57BL/6 mice; dose 1 mg/kg): 20.83; Average HTR Over 20-min Test (C57BL/6 mice; dose 10 mg/kg): 11.33; maximal effect in the HTR assay (C57BL/6 mice): 20.8 head twitches/20 min; EC50 (5-HT2A receptor): 0.0151 µM |
| O=P(O)(O)Oc1cccc2[nH]cc(CCN3CCC3)c12 [Compound 5, 3-(2-(azetidin-1-yl)ethyl)-1H-indol-4-yl dihydrogen phosphate] |  |  |  |  |  |  |  |  |  |  |  | hydrolysis of the ester to Compound 2 as active metabolite [4]: rapidly hydrolyzed; stability compared with Compound 2 [5]: more stable than Compound 2 |
| COc1ccc2[nH]cc(CCN(C)C)c2c1 [Compound 5-MeO-DMT, reference compound] | 102 |  | 17.6 | 0.3 | 91.2 |  | 100 | 106 | 0.227 | 0.24 | >4.818 |  |
| CN(C)CCc1c[nH]c2ccccc12 [DMT, N,N-dimethyltryptamine, reference compound] | 199 |  | 10.4 | 0.0 | 0.0 |  | 68.1 | 93.4 | 0.117 | 0.085 | 0.107 |  |
| COc1cc(CC(C)N)c(OC)cc1I (stereo not shown) [DOI, 4-iodo-2,5-dimethoxyamphetamine, reference compound] |  |  |  |  |  |  |  |  |  |  |  | maximal effect in the HTR assay (C57BL/6 mice): 35.6 head twitches/20 min |
| CCN(C)CCc1c[nH]c2ccccc12 [MET, N-ethyl-2-(1H-indol-3-yl)-N-methylethan-1-amine, reference compound] |  | > 100 | 22.5 |  |  | 89.4 | 73.6 | 36.2 |  |  |  | 5-HT2C % Act @ Max Dose (human 5-HT2C receptor): 89.7%; EC50 (human 5-HT2C receptor): 0.0283 µM; EC50 (5-HT2A receptor): 0.0171 µM |
| CN(C)CCc1c[nH]c2cccc(O)c12 [Psilocin, psilocin, reference compound] | 127 |  | 1.44 | 46.1 | 97.6 | 5.26 | 66.4 |  | 1.828 | 1.913 | >4.818 |  |
